{"source": "paper PMC6269819", "about": "“Evaluation of the Biological Activity of Naturally Occurring 5,8-Dihydroxycoumarin” (Molecules, 2013)", "key": {"[1]": {"tested_on": "Wistar rat bone marrow cells", "experiment": "Chromosome aberration in vivo assay in rat bone marrow", "from_the_text": "(§1) Male albino Wistar rats aged 8–10 weeks and having body weight of 200–220 g, were used in the present study. The animals were supplied by the Animal Facility of the Department of Immunology, State Research Institute Center for Innovative Medicine. Ethical approval was given by the Committee of the Lithuanian Animal Care and Use. Prior to the start of the study, the animals were acclimatized for 7 days. They were housed under conditions of constant temperature, humidity and a light/dark cycle of 12 h/12 h with free access to standard commercial pellet diet and drinking water. The animals were randomly distributed into 11 experimental groups of six rats each.\n(§2) We used a mixture of dimethylsulfoxide (DMSO) and sunflower oil (1:2) as the vehicle for 5,8-DHC (5,8-DHC was dissolved in DMSO and adjusted to the desired dose with sunflower oil immediately before administration). For the acute treatment, the animals received single intraperitoneal (i.p.) injections of 10 or 20 mg/kg of 5,8-DHC in 1 mL volume per 100 g body weight (b.w.). The negative control group comprised animals, given a single i.p. injection of vehicle (1 mL/100 g b.w.) and the positive control group, given cyclophosphamide (CP, 30 mg/kg adjusted in 0.5 mL/100 g b.w. in sterile physiological saline). A commercial form of cyclophosphamide was used (‘Endoxan’, ASTA Medica AG, Frankfurt, Germany). Blank controls comprised untreated animals. For the repeated treatment, 5,8-DHC (10 or 20 mg/kg) or vehicle was administered via gavage (1 mL/100 g b.w.) once a day for 3 consecutive days. Animals were sacrificed 24 h or 48 h after the last dose administration. Colchicine was applied i.p. at a dose of 2 mg/kg b.w. in 1 mL volume 90 min before sacrifice. Both femurs were dissected from each animal and used to obtain bone marrow preparations for the analysis of chromosome aberrations and micronucleus.\nBone marrow cells were flushed from the femora with 0.55% potassium chloride hypotonic solution, incubated for 25 min at 37 °C and then centrifuged at 150 × g for 8 min. Cells were fixed in methanol-glacial acetic acid (3:1). Slides were prepared by a flame-drying procedure and then stained with 5% Giemsa stain. Slides were coded and scored blind by the single scorer at a magnification of 1500× (Nikon ECLIPSE E200, Tokyo, Japan). Only well-spread metaphases with 42 ± 1 chromosomes were used for the analysis. The frequencies of CAs were estimated in 100 metaphases per animal. Aberrations were recorded as individual types according to J.R. Savage’s classification but for convenience were grouped as chromatid breaks (ctb), chromatid exchanges (cte), chromosome breaks (csb) and chromosome exchanges (cse). Gaps were counted but not included into statistical analysis."}, "[2]": {"tested_on": "Wistar rat bone marrow cells", "experiment": "Micronucleus in vivo assay in rat bone marrow", "from_the_text": "as §1, §2\nThe bone marrow MN assay was conducted according to the standard procedure. Ends of the femura were cut off and the bone marrow was washed out with 2 mL of heat-inactivated foetal calf serum (Biochrom AG, Berlin, Germany), mixed thoroughly to obtain a fine suspension and centrifuged for 5 min at 150 × g. The supernatant was discarded and the cell pellet was carefully re-suspended. At least two smears per animal were prepared and allowed to air dry prior to fixation with methanol. The slides were stained in May-Grünwald solution followed by Giemsa (both Merck), coded and scored blind by the same scorer under magnification of 1000× (Jenaval, Zeiss, Jena, Germany). Micronucleated polychromatic erythrocyte (MNPCE) frequencies were based on the observation of 2,000 immature polychromatic erythrocytes (PCEs). Bone marrow toxicity was monitored by a decrease of PCE to total erythrocytes (e.g., PCEs+NCEs, normochromatic erythrocytes). At least 1,000 bone marrow erythrocytes per animal were analysed."}, "[3]": {"experiment": "ABTS•+ radical cation decolorization assay", "details": "16 min reaction", "method": "The experiments were carried out using a slightly modified 2,2’-azinobis (3-ethylbenzothiazoline-6-sulfonic acid) diammonium salt (ABTS, Sigma-Aldrich Chemie, Steinheim, Germany) decolorization assay. Stock solution of ABTS (2 mM) was prepared by dissolving in 50 mL of phosphate buffered saline (PBS) obtained by dissolving 0.27 g of KH2PO4 (Jansen Chimica, Beerse, Belgium), 1.42 g of Na2HPO4, 8.18 g of NaCl, and 0.15 g of KCl (Merck, Darmstadt, Germany) in 1 L of distilled water. The pH was adjusted to 7.4 using NaOH solution. The ABTS^•+ was produced by reacting 50 mL of ABTS stock solution with 200 μL of K2S2O8 solution. The ABTS^•+ solution was diluted with PBS before measurements to obtain the absorbance of 0.800 ± 0.030 at 734 nm. 5,8-DHC was dissolved in PBS at the concentrations of 0.0025, 0.005, 0.01, 0.025 and 0.05% before the reaction. A 3 mL aliquot of ABTS^•+ solution was mixed with 30 μL of 5,8-DHC solution in the 1 cm path length quartz cuvette. The absorbance was read at ambient temperature after 16 min. PBS solution was used as a blank. All determinations were carried out in triplicate. Radical scavenging capacity was expressed as in DPPH^• scavenging assay."}, "[4]": {"details": "repeated gavage 3 × 10 mg/kg b.w., sacrifice 48 h"}, "[5]": {"details": "repeated gavage 3 × 20 mg/kg b.w., sacrifice 48 h"}, "[6]": {"details": "single i.p. 10 mg/kg b.w., sacrifice 24 h"}, "[7]": {"details": "single i.p. 10 mg/kg b.w., sacrifice 48 h"}, "[8]": {"details": "single i.p. 20 mg/kg b.w., sacrifice 24 h"}, "[9]": {"details": "single i.p. 20 mg/kg b.w., sacrifice 48 h"}}, "note": "“And” between values parts separate entries of the source, which are not always exact repeats. Equal entries are not always repeated. Marks after values point to notes of the source that are not given here.", "data": [{"smiles": "O=c1ccc2c(O)ccc(O)c2o1", "note": "[5,8-DHC, 5,8-Dihydroxycoumarin]", "values": [{"measurement": "increase of CAs compared with vehicle controls", "setting": "[1]; all 5,8-DHC treated animals", "result": "No increase of CAs"}, {"measurement": "Aberrant metaphases (%± S.E.M.)", "setting": "[1]; [4]", "result": "1.17 ± 0.17", "unit": "%"}, {"measurement": "Aberrant metaphases (%± S.E.M.)", "setting": "[1]; [5]", "result": "2.43 ± 0.37", "unit": "%"}, {"measurement": "Aberrant metaphases (%± S.E.M.)", "setting": "[1]; [6]", "result": "2.33 ± 0.49", "unit": "%"}, {"measurement": "Aberrant metaphases (%± S.E.M.)", "setting": "[1]; [7]", "result": "1.67 ± 0.56", "unit": "%"}, {"measurement": "Aberrant metaphases (%± S.E.M.)", "setting": "[1]; [8]", "result": "1.00 ± 0.36", "unit": "%"}, {"measurement": "Aberrant metaphases (%± S.E.M.)", "setting": "[1]; [9]", "result": "2.60 ± 0.68", "unit": "%"}, {"measurement": "cytotoxicity (decline of the proportion of PCEs to total erythrocytes)", "setting": "[2]; rat, in vivo", "result": "no signs of 5,8-DHC cytotoxicity"}, {"measurement": "effect on the frequency of MNPCEs", "setting": "[2]; repeated gavage", "result": "no obvious effect"}, {"measurement": "MNPCE (%± S.E.M.)", "setting": "[2]; [4]", "result": "0.24 ± 0.05", "unit": "%"}, {"measurement": "PCE (%± S.E.M.)", "setting": "[2]; [4]", "result": "31.7 ± 4.0", "unit": "%"}, {"measurement": "MNPCE (%± S.E.M.)", "setting": "[2]; [5]", "result": "0.23 ± 0.05", "unit": "%"}, {"measurement": "PCE (%± S.E.M.)", "setting": "[2]; [5]", "result": "45.5 ± 3.5", "unit": "%"}, {"measurement": "MNPCE (%± S.E.M.)", "setting": "[2]; [6]", "result": "0.56 ± 0.08 ^a %"}, {"measurement": "PCE (%± S.E.M.)", "setting": "[2]; [6]", "result": "32.1 ± 1.9", "unit": "%"}, {"measurement": "MNPCE (%± S.E.M.)", "setting": "[2]; [7]", "result": "0.30 ± 0.06", "unit": "%"}, {"measurement": "PCE (%± S.E.M.)", "setting": "[2]; [7]", "result": "31.8 ± 5.6", "unit": "%"}, {"measurement": "PCE (%± S.E.M.)", "setting": "[2]; [8]", "result": "36.6 ± 2.8", "unit": "%"}, {"measurement": "MNPCE (%± S.E.M.)", "setting": "[2]; single i.p. 20 mg/kg b.w., sacrifice 24 h, 20 mg/kg", "result": "0.63% and 0.63 ± 0.04 ^a %"}, {"measurement": "PCE (%± S.E.M.)", "setting": "[2]; [9]", "result": "26.6 ± 5.0", "unit": "%"}, {"measurement": "MNPCE (%± S.E.M.)", "setting": "[2]; single i.p. 20 mg/kg b.w., sacrifice 48 h, 20 mg/kg", "result": "0.59% and 0.59 ± 0.14^a %"}, {"measurement": "IC50 in ABTS•+ reaction", "setting": "[3]", "result": 0.028, "unit": "%"}]}]}
